Molecules are shown by their SMILES.

The conditions of the data set: 20% solution in D2O/EtOH-d6 (1:1), stabilized with 200 ppm 2,6-di-tbutyl-4-methylphenol, stored at 37° C., standing time 2 months. The procedure: In connection with the present invention, compounds which are stable in water or in mixtures of water and water-miscible solvents in a concentration of approx. 20 wt.-% and a pH value of approx. 2.0 at 37° C. for at least 6 weeks, i.e. hydrolyze to less than 1%, are described as hydrolysis-stable.
A 20% solution of MAPA, stabilized with 200 ppm 2,6-di-tbutyl-4-methylphenol, was prepared in D2O/EtOH-d6 (1:1), stored at 37° C. and ^1H-NMR-spectroscopically examined. After a standing time of 2 months, no changes in the ^1H-NMR-spectrum were able to be detected.

As for `C=C(COCCP(=O)(O)O)C(=O)Oc1c(C)cc(C)cc1C` [MAPA], the “Hydrolysis stability: changes in the 1H-NMR spectrum” value is given as “no changes”.

For the origin of these results see patent publication US20040077754A1, “Dental materials based on acrylic-ester phosphonic acids” (priority 2002, published 2004).
